Assay results published in PubChem BioAssay AID651563 (Sanford-Burnham Center for Chemical Genomics, 2012).
Calls of active or inactive are those of the source.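 How the source made its calls: active means compounds whose IC50 is 20 micromolar or lower, counted as confirmed SKN-1 reporter blockers; inactive means the rest.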

These compounds were tested on C. elegans VP596 Pgst-4::GFP/RFP ratio, acrylamide, 24 h (assay: inhibition of acrylamide-induced Pgst-4::GFP reporter, dose response, SKN-1 inhibitor project, whole organism, GFP/RFP fluorescence ratio, set 2, strain VP596 (AID 651563);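 further: red signal is driven by the dop-3 promoter and serves as the normalizer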).

SMILES	IC50
CCn1nccc1C(=O)Nc1ccc(Cl)c(Cl)c1	87.8 µM (inactive)
O=c1cc(-c2ccc(F)cc2)oc2ccccc12	19.2 µM
CCN(CC)c1ccc(/C=C2/C(=O)c3ccc(C(=O)O)cc3C2=O)cc1	11.9 µM
Fc1ccc(Nc2cccc3nccnc23)cc1	47.2 µM (inactive)
COc1ccc2c(c1)OC/C(=C/c1cccs1)C2=O	16.8 µM
O=C(C=Cc1cccs1)c1ccc(Cl)s1	17.7 µM
Cc1ccc(N=C/C(C(=O)C(F)(F)F)=C(\O)c2ccco2)cc1Cl	14.3 µM
Fc1ccc(-c2csc(-c3ccncc3)n2)cc1	5.86 µM
O=C(/C=C/Nc1ccc(F)cc1F)c1ccco1	22.7 µM (inactive)
O=C1c2cc(Br)ccc2OC2C=CC=CC12 (stereo unspecified)	> 100 µM (inactive)
c1ccc(Nc2nc(-c3cccs3)cs2)nc1	21.7 µM (inactive)
O=c1c2ccccc2ccc2ccccc12	33.8 µM (inactive)
O=C(Nc1nc2c(ccc3ccccc32)s1)c1ccco1	17.7 µM
O=C(Nc1nc(-c2ccc(Cl)s2)cs1)c1cccs1	6.63 µM
Brc1cccc(OCCSc2ncccn2)c1	> 100 µM (inactive)
Fc1ccc(-n2nnc(-c3nccs3)n2)cc1	24.4 µM (inactive)
O=C(Nc1nccs1)c1ccc2ccccc2c1	23.8 µM (inactive)
O=[N+]([O-])c1ccc(Nc2ccccc2)cc1	12.2 µM
Cc1ccc(-c2nc(-c3ccncc3)no2)c(C)c1	> 100 µM (inactive)
N#Cc1cncc(C#Cc2ccccc2)c1	31 µM (inactive)
CCCn1nc2cc(C(=O)NCc3ccc(OC(F)(F)F)cc3)ccc2c1OCC	25.4 µM (inactive)
Clc1ccc(-c2nnc(-c3ccccc3)o2)c(Cl)c1	1.46 µM

SMILES	IC50
N/C(=N\OC(=O)c1cc(Br)ccc1Cl)c1ccccn1	53.5 µM (inactive)
Fc1ccc(OCc2nc(-c3cccs3)no2)cc1	31.5 µM (inactive)
N=C1C=CC(=C(c2ccc(N)cc2)c2ccc(N)cc2)C=C1	20.2 µM (inactive)
Fc1ccc(COc2ccc(-c3nnco3)cc2)cc1	7.45 µM
Clc1ccc(-n2nnc(-c3cccnc3)n2)cc1Cl	> 100 µM (inactive)
CCSc1nnc(-c2ccc(Cl)cc2Cl)o1	58.5 µM (inactive)
CN1CCN(c2ccc(NC(=O)c3ccc(Oc4ccccc4)cc3)cc2)CC1	12.5 µM
Cc1oc(-c2ccc(-c3ccccc3)cc2)nc1CN(C)C1CCOC1 (stereo unspecified)	20.6 µM (inactive)
C(=C\c1nnc(-c2cccs2)o1)/c1ccccc1	15.9 µM
O=[N+]([O-])c1ccc(Nc2ccccc2)c2nonc12	49.6 µM (inactive)
CC/C(=C\c1ccc(Cl)cc1)c1ccncc1	28.2 µM (inactive)
Clc1ccc(Nc2nc(-c3cccs3)cs2)nc1	11.5 µM
O=[N+]([O-])c1ccc2nc(-c3ccccc3)oc2c1	3.84 µM
CCc1ccc(C(=O)Nc2ccc3nc(C)ccc3c2)cc1	14.2 µM
CSc1ccc(-c2cc(=O)c3ccccc3o2)cc1	17.5 µM
Fc1ccccc1OCCSc1nc2ccccc2o1	60.7 µM (inactive)
Fc1ccc(COc2ccc(-c3nnco3)cc2)c(Cl)c1	6.4 µM
COC(=O)c1cccc(CC2(C)C(=O)Nc3ccc(OC(F)(F)F)cc32)c1 (stereo unspecified)	> 100 µM (inactive)
O=[N+]([O-])c1ccc(COc2ccc(CN3CCCCC3)cc2)cc1	8.89 µM
O=[N+]([O-])c1ccc2cn(-c3ccccc3)nc2c1	2.81 µM
c1ccc2sc(SCc3ccc(-c4nnco4)cc3)nc2c1	11.9 µM
O=C(Nc1ccc(Cl)c(Cl)c1)c1ccco1	45.4 µM (inactive)

SMILES	IC50
O=C(Nc1nc(-c2ccc(Cl)s2)cs1)c1ccco1	15.5 µM
CSc1cccc(NC(=O)c2cccc3cccnc23)c1	12.7 µM
O=C(Nc1nccs1)c1ccc2ccccc2n1	15.8 µM
C(=C\c1nc(-c2ccncc2)no1)/c1ccccc1	19.1 µM
C=CCSc1nnc(-c2ccc(Cl)cc2Cl)o1	25.2 µM (inactive)
Cc1nc2ccccc2cc1OCc1ccc(F)cc1	24 µM (inactive)
CC(=O)NS(=O)(=O)c1ccc(Nc2ccc([N+](=O)[O-])c3nonc23)cc1	57.9 µM (inactive)
Clc1ccsc1-c1ccc2ccccc2n1	20.3 µM (inactive)
CC1=NN(c2ccccc2)C(=O)/C1=C\C=C1/N(C)c2ccccc2C1(C)C	14.4 µM
Brc1ccc(-c2nc(-c3ccccn3)no2)o1	35.8 µM (inactive)
O=C(Nc1ccc(-c2nnc(-c3ccccc3)o2)cc1)c1ccc(Br)o1	> 100 µM (inactive)
Cc1ccc(CSc2nnc(-c3ccco3)o2)cc1	23.8 µM (inactive)
Clc1ccc(OCc2cnc(Cl)s2)cc1	23.1 µM (inactive)
COc1ccc2c(c1OC)C(=O)OC2Nc1nc(-c2ccc(-c3ccccc3)cc2)cs1 (stereo unspecified)	33.8 µM (inactive)
Cc1ccc(NC(=O)c2ccc(F)cc2F)cc1	> 100 µM (inactive)
O=C1/C(=C/c2cccs2)CCc2ccccc21	34.3 µM (inactive)
c1ccc(-c2csc(-c3ccncc3)n2)cc1	12.6 µM
Clc1ccc(N2CCN(c3ccnc(Cl)n3)CC2)cc1	17.7 µM
Fc1ccccc1CSc1ccc(-c2ccco2)nn1	> 100 µM (inactive)
O=C(Nc1ccc(OC(F)F)c(Cl)c1)c1cccc(OC(F)F)c1	> 100 µM (inactive)
O=C(Nc1ccc(Cl)cn1)c1ccccc1F	20.6 µM (inactive)
CCCCCNC(=O)c1ccccc1SC	81.5 µM (inactive)
